Experimental data reported in the supplement of paper PMC10307832.

Assays:
Assay in all cases: relative viability (nuclei count vs DMSO), 5 days (fraction); higher = more cells survive
[1] = system: UMC-11
Outline: (§1)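 Each reported value is a median over duplicate plates. It expresses relative viability: treated-well nuclei count divided by vehicle-well nuclei count. Lung cancer cell lines in 1536-well plates were dosed by pin tool a day after seeding, alone with one drug or with a fixed anchor-drug dose plus five library-drug doses (not always all listed) in √10 steps, and nuclei were counted after 5 days.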

[2] = system: NCI-H2228
Outline: as §1

[3] = system: SK-LU-1
Outline: as §1

[4] = system: NCI-H1734
Outline: as §1

[5] = system: NCI-H1944
Outline: as §1

[6] = system: NCI-H2009
Outline: as §1

[7] = system: NCI-H1793
Outline: as §1

[8] = system: LK-2
Outline: as §1

[9] = system: NCI-H1993
Outline: as §1

[10] = system: NCI-H23
Outline: as §1

[11] = system: NCI-H838
Outline: as §1

[12] = system: HCC-78
Outline: as §1

[13] = system: COR-L23
Outline: as §1

[14] = system: HARA
Outline: as §1

[15] = system: EMC-BAC-2
Outline: as §1

[16] = system: HCC-366
Outline: as §1

[17] = system: LC-2-ad
Outline: as §1

[18] = system: NCI-H2405
Outline: as §1

[19] = system: HCC-15
Outline: as §1

[20] = system: NCI-H2023
Outline: as §1

[21] = system: A-427
Outline: as §1

[22] = system: ABC-1
Outline: as §1

Work on `Clc1ccc(Nc2nnc(Cc3ccncc3)c3ccccc23)cc1` [Vatalanib] + Cc1nc(NC(=O)N2CCC[C@H]2C(N)=O)sc1-c1ccnc(C(C)(C)C(F)(F)F)c1 [Alpelisib] (partner 2 µM) yielded a relative viability ([1]; first compound 0.04 µM) of 0.913, a relative viability ([1]; first compound 0.1265 µM) of 0.932 and a relative viability ([1]; first compound 0.4 µM) of 0.816. It also gave a relative viability ([1]; first compound 1.265 µM) of 0.979, a relative viability ([1]; first compound 4 µM) of 1.07 and a relative viability ([2]; first compound 0.04 µM) of 0.691. The relative viability ([2]; first compound 0.1265 µM) was 0.728, the relative viability ([2]; first compound 0.4 µM) was 0.867 and the relative viability ([2]; first compound 1.265 µM) was 0.713. The relative viability ([2]; first compound 4 µM) was 0.637, the relative viability ([3]; first compound 0.04 µM) was 1.09 and the relative viability ([3]; first compound 0.1265 µM) was 0.983. For the same molecule, the relative viability ([3]; first compound 0.4 µM) was 1.31, the relative viability ([3]; first compound 1.265 µM) was 1.02 and the relative viability ([3]; first compound 4 µM) was 1.04. The relative viability ([4]; first compound 0.04 µM) was 0.747, the relative viability ([4]; first compound 0.1265 µM) was 0.684 and the relative viability ([4]; first compound 0.4 µM) was 0.743. For the same molecule, the relative viability ([4]; first compound 1.265 µM) was 0.685, the relative viability ([4]; first compound 4 µM) was 0.689 and the relative viability ([5]; first compound 0.04 µM) was 0.888. For the same molecule, the relative viability ([5]; first compound 0.1265 µM) was 0.706, the relative viability ([5]; first compound 0.4 µM) was 0.833 and the relative viability ([5]; first compound 1.265 µM) was 0.808. The relative viability ([5]; first compound 4 µM) was 0.864, the relative viability ([6]; first compound 0.04 µM) was 1.14 and the relative viability ([6]; first compound 0.1265 µM) was 1.07. It also gave a relative viability ([6]; first compound 0.4 µM) of 1.2, a relative viability ([6]; first compound 1.265 µM) of 1.13 and a relative viability ([6]; first compound 4 µM) of 1.22. It also gave a relative viability ([7]; first compound 0.04 µM) of 0.554, a relative viability ([7]; first compound 0.1265 µM) of 0.659 and a relative viability ([7]; first compound 0.4 µM) of 0.569. It also gave a relative viability ([7]; first compound 1.265 µM) of 0.635, a relative viability ([7]; first compound 4 µM) of 0.647 and a relative viability ([8]; first compound 0.04 µM) of 0.951. The relative viability ([8]; first compound 0.1265 µM) was 0.999, the relative viability ([8]; first compound 1.265 µM) was 1.07 and the relative viability ([8]; first compound 4 µM) was 1.24. It also gave a relative viability ([9]; first compound 0.04 µM) of 0.581, a relative viability ([9]; first compound 0.1265 µM) of 0.68 and a relative viability ([9]; first compound 0.4 µM) of 0.678. For the same molecule, the relative viability ([9]; first compound 1.265 µM) was 0.634, the relative viability ([9]; first compound 4 µM) was 0.707 and the relative viability ([10]; first compound 0.04 µM) was 0.649. It also gave a relative viability ([10]; first compound 0.1265 µM) of 0.672, a relative viability ([10]; first compound 0.4 µM) of 0.78 and a relative viability ([10]; first compound 1.265 µM) of 0.775. It also gave a relative viability ([10]; first compound 4 µM) of 0.75, a relative viability ([11]; first compound 0.04 µM) of 0.975 and a relative viability ([11]; first compound 0.1265 µM) of 1.07. The relative viability ([11]; first compound 0.4 µM) was 1.06, the relative viability ([11]; first compound 1.265 µM) was 0.864 and the relative viability ([11]; first compound 4 µM) was 0.985. For the same molecule, the relative viability ([12]; first compound 0.04 µM) was 0.255, the relative viability ([12]; first compound 0.1265 µM) was 0.346 and the relative viability ([12]; first compound 0.4 µM) was 0.277. It also gave a relative viability ([12]; first compound 4 µM) of 0.323, a relative viability ([13]; first compound 0.04 µM) of 0.769 and a relative viability ([13]; first compound 0.1265 µM) of 0.75. For the same molecule, the relative viability ([13]; first compound 0.4 µM) was 1.07, the relative viability ([13]; first compound 1.265 µM) was 0.665 and the relative viability ([13]; first compound 4 µM) was 0.739. For the same molecule, the relative viability ([14]; first compound 0.04 µM) was 0.738, the relative viability ([14]; first compound 0.1265 µM) was 0.869 and the relative viability ([14]; first compound 0.4 µM) was 0.761. It also gave a relative viability ([14]; first compound 1.265 µM) of 0.831, a relative viability ([14]; first compound 4 µM) of 0.808 and a relative viability ([15]; first compound 0.04 µM) of 0.714. It also gave a relative viability ([15]; first compound 0.1265 µM) of 0.714, a relative viability ([15]; first compound 0.4 µM) of 0.72 and a relative viability ([15]; first compound 1.265 µM) of 0.74. The relative viability ([15]; first compound 4 µM) was 0.729, the relative viability ([16]; first compound 0.04 µM) was 0.388 and the relative viability ([16]; first compound 0.1265 µM) was 0.346. The relative viability ([16]; first compound 0.4 µM) was 0.461, the relative viability ([16]; first compound 1.265 µM) was 0.33 and the relative viability ([16]; first compound 4 µM) was 0.396. The relative viability ([17]; first compound 0.04 µM) was 0.86, the relative viability ([17]; first compound 0.1265 µM) was 0.847 and the relative viability ([17]; first compound 0.4 µM) was 0.988. It also gave a relative viability ([17]; first compound 1.265 µM) of 0.825, a relative viability ([17]; first compound 4 µM) of 0.867 and a relative viability ([18]; first compound 0.04 µM) of 0.959. The relative viability ([18]; first compound 0.1265 µM) was 0.769, the relative viability ([18]; first compound 1.265 µM) was 0.795 and the relative viability ([18]; first compound 4 µM) was 0.773. For the same molecule, the relative viability ([19]; first compound 0.04 µM) was 0.893, the relative viability ([19]; first compound 0.1265 µM) was 0.884 and the relative viability ([19]; first compound 0.4 µM) was 0.918. For the same molecule, the relative viability ([19]; first compound 1.265 µM) was 0.916, the relative viability ([19]; first compound 4 µM) was 0.937 and the relative viability ([20]; first compound 0.04 µM) was 0.611. It also gave a relative viability ([20]; first compound 0.1265 µM) of 0.537, a relative viability ([20]; first compound 0.4 µM) of 0.657 and a relative viability ([20]; first compound 1.265 µM) of 0.492. The relative viability ([20]; first compound 4 µM) was 0.561, the relative viability ([21]; first compound 0.04 µM) was 0.988 and the relative viability ([21]; first compound 0.1265 µM) was 1.06. The relative viability ([21]; first compound 0.4 µM) was 1.13, the relative viability ([21]; first compound 1.265 µM) was 1.11 and the relative viability ([21]; first compound 4 µM) was 1.08. For the same molecule, the relative viability ([22]; first compound 0.04 µM) was 1, the relative viability ([22]; first compound 0.1265 µM) was 0.936 and the relative viability ([22]; first compound 0.4 µM) was 1.2. It also gave a relative viability ([22]; first compound 1.265 µM) of 0.853 and a relative viability ([22]; first compound 4 µM) of 0.926.
